Measurements published in US10441657B2, “Methods and compositions for self-regulated release of active pharmaceutical ingredient” (Acura Pharmaceuticals, Inc., priority 2012, dated 2019).

How the values were obtained:
[1] = pH of dissolution vessel with calcium carbonate antacid tablets in HCl; type: physicochemical; conditions: in 10 minutes (FIG. 1)
Experimental: Two dissolution vessels were prepared: one vessel contained 25 mEq of HCl and a single commercially available calcium carbonate antacid tablet (Tums®), and the other vessel contained 25 mEq of HCl and five calcium carbonate antacid tablets. […] Calcium carbonate has shown a capability as a pH modifier and pH dependent solubility.

[2] = earlier experimentation
Experimental: Thus, sodium bicarbonate was added to a prototype formulation primarily to control rapid pH elevation and calcium carbonate for a more sustained control of elevated pH.

## O=C([O-])[O-].[Ca+2] [calcium carbonate]
[1]
  pH change seen for calcium carbonate: 5

## O=C([O-])O.[Na+] [sodium bicarbonate]
[2]
  time to raise acid media from pH 1 to pH 6: less than 2 minutes
